From patent US20260317272A1, “USE OF STROBILURIN TYPE COMPOUNDS FOR COMBATING PHYTOPATHOGENIC FUNGI CONTAINING AN AMINO ACID SUBSTITION F129L IN THE MITOCHONDRIAL CYTOCHROME B PROTEIN CONFERRING RESISTANCE TO QO INHIBITORS XVI” (priority 2023, published 2026)

Experiments:
Phakopsora pachyrhizi [1] = test: Use Example 5: protective control of soybean rust on soybeans (PHAKPA P9); format: in vivo; conditions: 16 ppm, 9 days before inoculation, F129L strain, up to 14 days, untreated 85
Experimental: (§1) The compound was dissolved in a mixture of acetone and/or dimethylsulfoxide and the wetting agent/emulsifier Wettol, which is based on ethoxylated alkylphenoles, in a ratio (volume) solvent-emulsifier of 99 to 1 to give a total volume of 5 ml. Subsequently, water was added to total volume of 100 ml. This stock solution was then diluted with the described solvent-emulsifier-water mixture to the final concentration given in the tables below.
Use Example 5. Protective Control of Soybean Rust on Soybeans Caused by Phakopsora pachyrhizi (PHAKPA P9)
Leaves of potted soybean seedlings were sprayed to run-off with the previously described spray solution, containing the concentration of active ingredient or their mixture as described below. The plants were allowed to air-dry. The trial plants were cultivated for 9 days in a greenhouse chamber at 23-27° C. and a relative humidity between 60 and 80%. Then the plants were inoculated with spores of Phakopsora pachyrhizi. The strain used contains the amino acid substitution F129L in the mitochondrial cytochrome b protein conferring resistance to Qo inhibitors. To ensure the success of the artificial inoculation, the plants were transferred to a humid chamber with a relative humidity of about 95% and 20 to 24° C. for 24 h. The trial plants were cultivated for up to 14 days in a greenhouse chamber at 23-27° C. and a relative humidity between 60 and 80%. The extent of fungal attack on the leaves was visually assessed as % diseased leaf area.

Phakopsora pachyrhizi [2] = test: Use Example 3: protective control of soybean rust on soybeans (PHAKPA P2); format: in vivo; conditions: 16 ppm, 2 days before inoculation, F129L strain, up to 14 days, untreated 90
Experimental: as §1
Use Example 3. Protective Control of Soybean Rust on Soybeans Caused by Phakopsora pachyrhizi (PHAKPA P2)
(§2) Leaves of potted soybean seedlings were sprayed to run-off with the previously described spray solution, containing the concentration of active ingredient or their mixture as described below. The plants were allowed to air-dry. The trial plants were cultivated for 2 days in a greenhouse chamber at 23-27° C. and a relative humidity between 60 and 80%. Then the plants were inoculated with spores of Phakopsora pachyrhizi. The strain used contains the amino acid substitution F129L in the mitochondrial cytochrome b protein conferring resistance to Qo inhibitors. To ensure the success the artificial inoculation, the plants were transferred to a humid chamber with a relative humidity of about 95% and 20 to 24° C. for 24 hr. The trial plants were cultivated for up to 14 days in a greenhouse chamber at 23 to 27° C. and a relative humidity between 60 and 80%. The extent of fungal attack on the leaves was visually assessed as % diseased leaf area, the disease level of untreated controls was usually higher than 85%.

Pyrenophora teres = test: Use Example 11: control of net blotch on barley (PYRNTE P1); format: in vivo, Pyrenophora (syn. Drechslera) teres; conditions: F129L strain, inoculated the next day, 16 ppm, untreated 75%
Experimental: as §1
Use Example 11. Control of Net Blotch on Barley Caused by Pyrenophora teres (PYRNTE P1)
The first fully developed leaves of potted barley plants were sprayed to run-off previously described spray solution, containing the concentration of active ingredient or their mixture mentioned in the table below. The next day the treated plants were inoculated with an aqueous spore suspension Pyrenophora (syn. Drechslera) teres. The strain used contains the amino acid substitution F129L in the mitochondrial cytochrome b protein conferring resistance to Qo inhibitors. Then the trial plants were cultivated for up to 19 days at 20-24° C. and a relative humidity close to 70%, the extent of fungal attack on the leaves was visually assessed as % diseased leaf area.

Puccinia triticina [3] = test: Use Example 15: activity against Puccinia triticina (PUCCRT, brown rust on wheat) in field; format: in vivo; conditions: for Efficacy, %: Abbot's formula, B23; for infection rate, %: B23 (23 days after second treatment), flag leaf
Experimental: Use Example 15. Activity Against Puccinia triticina (PUCCRT, Brown Rust on Wheat) in Field
Trials were conducted under field conditions in Spain. Spring wheat was planted and grown with adequate supply of water and nutrients. Two applications (A and B) of the test compounds were made at onset of disease (application A) and at second application at an interval of 22 days (application B). The spray solutions were prepared by mixing experimental formulations of the test compounds (50 g/L EC) in water, adding 124 g/ha Plurafac LF301 and Plurafac LF1312 (BASF, low-foaming non-ionic surfactants consisting of alkoxylated, predominantly unbranched fatty alcohols containing higher alkene oxides alongside ethylene oxide), respectively. The spray solutions were applied with 300 I/ha spray volume with a flat fan nozzle.
The infestation levels for brown rust (Puccinia triticina) were evaluated 23 days after the second fungicide treatment (B23), a mean value across the flag leaf level was calculated. In addition, efficacy was calculated using Abbot's formula as in use example 14.

Phakopsora pachyrhizi [4] = test: Use Example 4: protective control of soybean rust on soybeans (PHAKPA P6); format: in vivo; conditions: 16 ppm, six days before inoculation, F129L strain, up to 14 days, untreated 90
Experimental: as §1
Use Example 4. Protective Control of Soybean Rust on Soybeans Caused by Phakopsora pachyrhizi (PHAKPA P6)
as §2, with “active ingredient as described” for “active ingredient or their mixture as described”, “cultivated for six days in” for “cultivated for 2 days in”, “95% and 23 to 27°” for “95% and 20 to 24°”, “23 to 27° C. for” for “20 to 24° C. for”

Puccinia triticina [5] = test: Use Example 6: preventative control of brown rust on wheat (PUCCRT P7); format: in vivo, Puccinia triticina (syn. P. recondita); conditions: 16 ppm, seven days before inoculation, 9 to 12 days, untreated 85
Experimental: as §1
Use Example 6. Preventative Control of Brown Rust on Wheat Caused by Puccinia triticina (Syn. P. recondita) (PUCCRT P7)
The first two developed leaves of potted wheat seedling were sprayed to run-off with previously described spray solution, containing the concentration of active ingredient or their mixture as described below. Seven days later the plants were dusted with spores of Puccinia triticina. To ensure the success of the artificial inoculation, the plants were transferred to a humid chamber without light and a relative humidity of 95 to 99% and 20 to 24° C. for 24 h. Then the trial plants were cultivated for 9 to 12 days in a greenhouse chamber at 20 to 24° C. and a relative humidity between 65 and 70%. The extent of fungal attack on the leaves was visually assessed as % diseased leaf area.

[6] = Table 8, 75 g a.i./ha, untreated infection 75%
[7] = Table 8, 150 g a.i./ha, untreated infection 75%
[8] = Table 8, 75 g a.i./ha, untreated 75%
[9] = Table 8, 150 g a.i./ha, untreated 75%
[10] = Table 10, 75 g a.i./ha, untreated infection 50%
[11] = Table 10, 150 g a.i./ha, untreated infection 50%
[12] = Table 10, 75 g a.i./ha, untreated 50%
[13] = Table 10, 150 g a.i./ha, untreated 50%

Structure (SMILES)	Diseased leaf area (%) (Phakopsora pachyrhizi [1])	Diseased leaf area (%) (Phakopsora pachyrhizi [2])	Diseased leaf area (%) (Pyrenophora teres)	Efficacy, % (Puccinia triticina [3]; [6])	Efficacy, % (Puccinia triticina [3]; [7])	infection rate, % (Puccinia triticina [3]; [8])	infection rate, % (Puccinia triticina [3]; [9])	Diseased leaf area (%) (Phakopsora pachyrhizi [4])	Diseased leaf area (%) (Puccinia triticina [5])	Efficacy, % (Puccinia triticina [3]; Table 9, 75 g a.i./ha, untreated infection 74%)	Efficacy, % (Puccinia triticina [3]; Table 9, 150 g a.i./ha, untreated infection 74%)	infection rate, % (Puccinia triticina [3]; Table 9, 75 g a.i./ha, untreated 74%)	infection rate, % (Puccinia triticina [3]; Table 9, 150 g a.i./ha, untreated 74%)	Efficacy, % (Puccinia triticina [3]; [10])	Efficacy, % (Puccinia triticina [3]; [11])	infection rate, % (Puccinia triticina [3]; [12])	infection rate, % (Puccinia triticina [3]; [13])
COC/C(=N\OCc1c(C)cccc1/C(=N\OC)C(=O)OC)c1c(F)cc(F)cc1F [Compound 2, methyl (2E)-2-methoxyimino-2-[2-[[(Z)-[2-methoxy-1-(2,4,6-trifluorophenyl)ethylidene]amino]oxymethyl]-3-methyl-phenyl]acetate]	2%	6%	6%	23%	40%	58%	45%	7%									
CNC(=O)/C(=N/OC)c1cccc(C)c1CO/N=C(\COC)c1c(F)cc(OC)cc1F [Compound 7, (2E)-2-[2-[[(Z)-[1-(2,6-difluoro-4-methoxy-phenyl)-2-methoxy-ethylidene]amino]oxymethyl]-3-methyl-phenyl]-2-methoxyimino-N-methyl-acetamide]	1%	0%		92%	97%	6%	2%	1%	6%								
CO/C=C(/C(=O)OC)c1cccc(C)c1CO/N=C(\COC)c1c(F)cc(F)cc1F [Compound 4, methyl (E)-3-methoxy-2-[2-[[(Z)-[2-methoxy-1-(2,4,6-trifluorophenyl)ethylidene]amino]oxymethyl]-3-methyl-phenyl]prop-2-enoate]	0%	0%	5%	95%	97%	4%	2%	0%	7%								
CO/C=C(/C(=O)OC)c1cccc(C)c1CO/N=C(\COC)c1ccc(F)cc1Cl [Compound 3]	0%	1%	3%					4%	9%	66%	73%	25%	20%				
CNC(=O)/C(=N/OC)c1cccc(C)c1CO/N=C(\COC)c1ccc(F)c(F)c1 [Compound 5, (2E)-2-[2-[[(Z)-[1-(3,4-difluorophenyl)-2-methoxy-ethylidene]amino]oxymethyl]-3-methylphenyl]-2-methoxyimino-N-methyl-acetamide]	1%	0%	3%					0%	6%					84%	92%	8%	4%
CO/C=C(/C(=O)OC)c1cccc(C)c1CO/N=C(\COC)c1ccc(Cl)cc1Cl [Compound 6, methyl (E)-2-[2-[[(Z)-[1-(2,4-dichlorophenyl)-2-methoxy-ethylidene]amino]oxymethyl]-3-methyl-phenyl]-3-methoxy-prop-2-enoate]	9%	13%	7%					9%	11%					40%	50%	30%	25%
CNC(=O)/C(=N/OC)c1cccc(C)c1CO/N=C(\COC)c1c(F)cc(F)cc1F [Compound 1, (2E)-2-methoxyimino-2-[2-[[(Z)-[2-methoxy-1-(2,4,6-trifluorophenyl)ethylidene]amino]oxymethyl]-3-methyl-phenyl]-N-methyl-acetamide]	0%	0%	5%	60%	89%	30%	8%	0%	10%								
